Data taken from US7423114B2, “GD2 ligands” (McGill University, priority 2002, dated 2008).
Entries after “also recorded” stand apart in the source; their conditions may differ.

How the values were obtained:
mAb 3F8-GD2 interactions = assay: Competitive ELISA: inhibition of mAb 3F8 binding to immobilized GD2 by peptides; design: key to Activity in SAR and deletion analysis (inactive mark): peptides marked by * are inactive; details: for % Inhibition of mAb 3F8-GD2 interactions: peptides 50 μg/well, 1 hour before mAb 3F8, immobilized GD2, no peptide = 0%, no mAb 3F8 = 100%, mean ± SEM of 5 experiments; for Activity in SAR and deletion analysis (inactive mark): Table 1 domains/peptides
Experimental: Detection of GD2 or GM1 by ELISA: 12.5 ng/well of ganglioside (GD2, Advanced Immunochemicals or GM1) were immobilized by drying onto PVC 96-well plates (Falcon), followed by blocking with PBS-0.5% BSA for one hour. Then, anti-GD2 mAb 3F8 or biotin-CTB were added for 10 minutes. The plate was washed three times with PBS-0.5% BSA and incubated 60 minutes with horseradish peroxidase (HRP)-conjugated anti-mouse antibody or HRP-conjugated-avidin. After three washes with PBS-0.5% BSA and two with PBS, the colorimetric substrate ABTS was added and the plate read at 414 nm on a Biorad 550 plate reader. Assessment of peptide-GD2 interaction by competitive ELISA: ELISAs were as described above, except that peptides (50 μg/well, in PBS) were added to the wells for 1 hour before anti-GD2 mAb 3F8 or anti-GM1 cholera toxin-B. Selectivity of inhibition is controlled by lack of effect upon GM1-CTB interactions. […] No competitor peptide added or control irrelevant peptide added were standardized as 100% binding. […] Inhibition of mAb 3F8 bindng to immobilized GD2 by peptides, measured by competitive ELISA. No peptide or control peptide treatments are standardized as 0% inhibition. No mAb 3F8 treatment is standardized as 100% inhibition. Average of 5 […] experiments, n=4 in each experiment. Mean±SEM.

EL4 GD2^positive cells = assay: Intracellular calcium by flow cytometry (Rhod-2 AM); type: cell-based, mouse; details: PP1 10 μM, EL4 GD2positive cells
Experimental: (c) Effect of GD2 ligands on intracellular calcium concentrations. Resting EL4 GD2positive cells were treated with mAb 3F8 (13 nM), control mouse IgG (mIg) or the calcium ionophore A23187. Intracellular calcium concentration was evaluated over time by flow cytometry using the calcium-sensitive fluorophore Rhod-2 AM. mAb 3F8 can induce strong, sustainable calcium changes withing 5 minutes, while control mouse IgG has no effect. […] Shown are averages of 4 independent assays ± SEM.
Intracellular calcium studies: cells (1×10^6 per sample) were washed with Ringer's solution (155 mM NaCl, 4.5 mM KCl, 2 mM CaCl2, 1 mM MgCl2, 10 mM D-glucose, 5 mM HEPES) and resuspended in 1 ml Ringer's containing 10 μM p56^Lck inhibitor PP1 (BioMol) or vehicle for 15 minutes at 37° C. Then 5 μM Rhod-2AM (Molecular Probes) was then added to the cells and incubated for 30 minutes at room temprature with mild agitation. Cells were washed once in Ringer's, resuspended in 1 ml Ringer's and incubated for 30 minutes, after which cells were stimulated with the indicated ganglioside ligands (or calcium ionophore A23187 as control) and analyzed over a 30 minute period for intracellular Ca^2+ using a flow cytometer (Becton-Dickinson).

[1] = molecular target: T1, purified p56^Lck tyrosine kinase (Homo sapiens, UniProt P06239); assay: Effect of exogenous gangliosides on in vitro kinase activity of purified p56Lck; type: biochemical; details: control assays
T1 construct: purchased Upstate Biotechnology
Experimental: The kinase activity of p56^Lck was evaluated by measuring the incorporation of ^32PO4 in a peptidic p56^Lck substrate over time, with or without GD2 or GM1. Presence of GD2, but not GM1, can positively alter the kinetics of p56^Lck kinase activity. Activity standardized to untreated p56^Lck at the 20 minute time point. Shown are averages of 3 to 5 assays±SEM.
Effect of exogenous GD2 on p56^Lck in vitro kinase assay: chromatographically purified p56^Lck tyrosine kinase (Upstate Biotechnology) was incubated on ice for 10 minutes in kinase buffer (100 mM Tris-HCl, pH 7.2, 125 mM MgCl2, 25 mM MnCl2, 2 mM EGTA, 150 μM ATP, 0.25 mM sodium orthovanadate, 2 mM DTT) with or without ˜20 fold molar excess of ganglioside and 10 μCi [γ-^32P]ATP. Then 10 μg of the Src kinase substrate peptide p34^cdc2(6-20) (Upstate Biothechnology) was added to the mix and incubated at room temperature for the times indicated, after which the reaction was stopped by addition of 100 μM iodoacetamide and by precipitation of proteins with final 10% TCA. The supematant (containing the phosphorylated peptide substrate, not precipitated by TCA) was spotted on a P81 paper (Whatman) and washed three times with 0.75% phosphoric acid and once with acetone. The [^32P]-peptide content was quantified using a Storm 840 phosphorimager with ImageQuant software.

human recombinant CD45 = molecular target: T2, human recombinant CD45 (Homo sapiens, UniProt P08575); assay: In vitro CD45 phosphatase assay; type: biochemical; details: gangliosides 16.7 μM, pp60Src phosphoregulatory peptide substrate
T2 construct: purchased BioMol
T2 sequence (P08575 26-1306): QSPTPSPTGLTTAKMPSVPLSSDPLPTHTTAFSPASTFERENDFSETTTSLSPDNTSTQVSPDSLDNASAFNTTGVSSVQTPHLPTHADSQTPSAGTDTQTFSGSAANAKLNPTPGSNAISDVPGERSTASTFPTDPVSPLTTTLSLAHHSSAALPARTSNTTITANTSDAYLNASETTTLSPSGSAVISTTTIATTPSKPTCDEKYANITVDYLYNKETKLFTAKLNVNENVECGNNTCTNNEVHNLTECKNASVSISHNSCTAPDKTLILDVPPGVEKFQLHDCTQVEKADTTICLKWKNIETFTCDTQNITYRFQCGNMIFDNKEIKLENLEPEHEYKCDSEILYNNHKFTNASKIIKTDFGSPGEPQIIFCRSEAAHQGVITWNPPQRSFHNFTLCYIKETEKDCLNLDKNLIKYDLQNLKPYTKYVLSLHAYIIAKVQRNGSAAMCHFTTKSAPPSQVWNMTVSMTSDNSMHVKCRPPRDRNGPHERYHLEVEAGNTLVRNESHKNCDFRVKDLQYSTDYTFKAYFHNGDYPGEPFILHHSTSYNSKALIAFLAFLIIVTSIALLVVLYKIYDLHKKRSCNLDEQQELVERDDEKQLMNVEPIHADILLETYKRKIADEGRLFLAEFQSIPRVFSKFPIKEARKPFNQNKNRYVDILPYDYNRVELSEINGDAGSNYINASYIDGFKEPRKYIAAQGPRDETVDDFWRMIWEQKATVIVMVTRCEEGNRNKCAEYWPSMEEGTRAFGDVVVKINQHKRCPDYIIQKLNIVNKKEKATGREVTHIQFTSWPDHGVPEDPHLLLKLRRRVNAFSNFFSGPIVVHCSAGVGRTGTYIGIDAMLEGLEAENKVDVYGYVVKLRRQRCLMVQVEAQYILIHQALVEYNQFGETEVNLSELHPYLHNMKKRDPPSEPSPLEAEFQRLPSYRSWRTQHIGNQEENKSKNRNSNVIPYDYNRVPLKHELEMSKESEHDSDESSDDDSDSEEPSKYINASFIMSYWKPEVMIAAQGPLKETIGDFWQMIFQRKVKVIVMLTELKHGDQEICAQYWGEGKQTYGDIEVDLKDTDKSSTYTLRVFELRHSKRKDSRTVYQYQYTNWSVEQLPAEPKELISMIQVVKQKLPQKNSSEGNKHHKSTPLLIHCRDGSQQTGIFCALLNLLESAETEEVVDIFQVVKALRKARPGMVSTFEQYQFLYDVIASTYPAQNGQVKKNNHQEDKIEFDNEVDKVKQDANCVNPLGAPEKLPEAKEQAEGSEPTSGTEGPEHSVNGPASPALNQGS
Experimental: In vitro CD45 phosphatase assay: human recombinant CD45 enzyme (BioMol, 75 units/well) was preincubated in the absence (negative control) or presence of sodium orthovanadate (positive control) or various gangliosides (16.7 μM) for 20 minutes at room temperature in half-volume 96-well microtiter plates. A CD45-specific substrate (pp60^Src C-terminal phosphoregulatory peptide, 200 μM) was then added for 20 minutes at 30° C., afterwhich the reaction was stopped and quantified with BioMol Green reagent. Plates were read at 620 nm with a Biorad 550 platew reader.

T1 sequence (P06239 whole entry): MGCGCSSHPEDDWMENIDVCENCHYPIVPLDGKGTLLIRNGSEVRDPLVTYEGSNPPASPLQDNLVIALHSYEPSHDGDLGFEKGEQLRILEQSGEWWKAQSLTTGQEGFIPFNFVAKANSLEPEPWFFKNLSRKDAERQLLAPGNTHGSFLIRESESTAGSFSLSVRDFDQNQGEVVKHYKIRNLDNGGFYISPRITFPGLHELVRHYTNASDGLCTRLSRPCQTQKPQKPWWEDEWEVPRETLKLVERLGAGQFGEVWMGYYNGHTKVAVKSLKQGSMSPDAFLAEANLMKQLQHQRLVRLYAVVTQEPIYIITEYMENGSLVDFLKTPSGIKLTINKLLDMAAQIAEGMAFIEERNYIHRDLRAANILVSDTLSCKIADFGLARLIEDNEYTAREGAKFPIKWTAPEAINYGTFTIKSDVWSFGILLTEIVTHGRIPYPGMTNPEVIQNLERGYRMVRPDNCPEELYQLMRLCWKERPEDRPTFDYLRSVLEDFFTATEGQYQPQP

Row | Molecule | % Inhibition of mAb 3F8-GD2 interactions (mAb 3F8-GD2 interactions) [%] | further results
1 | C I T N Y N S C (CITNYNSC) [Pep 53] | 24.74 ± 3.29 | –
2 | YCTNYGVHCY [core matches Pep 55 with added terminal Y residues] | – | Activity in SAR and deletion analysis (inactive mark) (mAb 3F8-GD2 interactions): *
3 | YCTNYGVCY [core matches Pep 56 with added terminal Y residues] | – | Activity in SAR and deletion analysis (inactive mark) (mAb 3F8-GD2 interactions): *
4 | G G I T N Y N S A L M (GGITNYNSALM) [Pep 51] | 44.96 ± 1.57 | Inhibition of GD2-mAb 3F8 interactions in ELISA, in words (mAb 3F8-GD2 interactions): can also act as a competitive inhibitor
5 | Cc1ccc(-c2nn(C(C)(C)C)c3ncnc(N)c23)cc1 [PP1] | – | Effect of p56Lck inhibitor on mAb 3F8-induction of Ca++ fluxes (EL4 GD2^positive cells): markedly decreased; also recorded: partially abolished
6 | C G GI A N Y N T S C [Pep 59] | 48.83 ± 5.01 | –
7 | phosphatidylcholine | – | p56Lck kinase activity upon addition of exogenous lipid, in words [1]: not altered
8 | GD1a | – | Inhibition of CD45 phosphatase activity (human recombinant CD45): 50%
9 | G G I A N Y N T S (GGIANYNTS) [Pep 57] | 4.33 ± 5.23 | Activity in SAR and deletion analysis (inactive mark) (mAb 3F8-GD2 interactions): *
10 | C I A N Y N T C (CIANYNTC) [Pep 60] | 30.94 ± 3.53 | –
11 | C G G I T N Y N S A C (CGGITNYNSAC) [Pep 52] | 30.17 ± 2.69 | –

Further lines, with some results ahead:

Row | % Inhibition of mAb 3F8-GD2 interactions (mAb 3F8-GD2 interactions) [%] | Molecule | further results
12 | 14.13 ± 5.43 | C T N Y G V C (CTNYGVC) [Pep 56] | –
13 | 12.23 ± 4.41 | C T N Y G V H C (CTNYGVHC) [Pep 55] | –
14 | 47.60 ± 4.26 | C G GI A N Y N C [Pep 58] | –
15 | 40.34 ± 3.17 | C G G I T N Y N C (CGGITNYNC) [Pep 54] | –
